Consider three compounds from patent US4532254A, “Inhibitor of aldose reductase” (Kaken Pharmaceutical Co., Ltd., priority 1983, dated 1985).

Molecules are shown by their SMILES. Where two headings read alike, the source gives them in different places.

In one assay the target is T1, rat lens AR (Rattus norvegicus, UniProt P07943).
T1 construct: Rat lenses were removed from eyes of rats of the Wistar strain; from tissue; host or cells: lens of Wistar rats; enzyme purified by ammonium sulfate, DEAE-Sephacel, Matrex gel red A and Sephadex G-75
The experiment in a line: Inhibition of rat lens aldose reductase (RLAR), NADPH oxidation at 340 nm. In kind it is biochemical, rat (Wistar strain). The conditions noted are these: for inhibition at 10 µM: 10^-5 M; for inhibition at 10 µM / inhibition at 1 µM / inhibition at 0.1 µM: read-out: Inhibition against enzyme activity (%); for inhibition at 1 µM: 10^-6 M; for inhibition at 0.1 µM: 10^-7 M. How it is done: (§1) The inhibitory activities against AR of LARI-1, LARI-2, LARI-3 and LARI-4 were determined according to the following method.
(§2) In Recipe Example, the followings were used. NADPH was purchased from the Oriental Yeast Co., Ltd. DL-Glyceraldehyde and quercitrin were purchased from Nakarai Chemicals, Ltd. DEAE-Sephacel and Sephadex G-75 were purchased from Pharmacia Fine Chemicals. Matrex gel red A was purchased from the Amicon Co. All other chemicals were of the highest grade commercially available.
(§3) Rat lenses were removed from eyes of rats of the Wistar strain weighing 200 to 250 g. Bovine eyes were obtained from a local abattoir, and the lenses were removed and frozen until needed.
(§4) Usually a 10^-3 M solution was prepared and diluted to the desired concentrations with propylene glycol. To the reaction mixture were added aliquots of the diluted solution to yield concentrations of 10^-8 M to 10^-5 M and a propylene glycol concentration of 1%.
(§5) AR assays were conducted according to the procedure of Hayman and Kinoshita (J. Biol. Chem. 240, p. 877 (1965)), except for the addition of ammonium sulfate instead of lithium sulfate to the reaction mixture. Assays were performed at 30° C. in 0.1M sodium phosphate buffer (pH 6.2) containing 0.4M ammonium sulfate, 10 mM DL-glyceraldehyde, 0.16 mM NADPH and the enzyme (0.010 to 0.016 unit) in a total volume of 1.0 ml. The effects of inhibitors on the enzyme activity were determined in the reaction mixture containing 10 μl. of each inhibitor solution at the desired concentrations. The blank reference to correct for non-specific reduction of NADPH contained all of the above compounds except DL-glyceraldehyde. The reaction was initiated by the addition of DL-glyceraldehyde, and the rate of NADPH oxidation was followed by recording the decrease in absorbance at 340 nm on a Gilford model 250 spectrophotometer.
(§6) BLAR and RLAR were purified according to the method of Inagaki et al (Archs Biochem. Biophys. 216, p. 337 (1982)). Briefly, a 40 to 75% ammonium sulfate fraction was subjected to chromatography on DEAE-Sephacel, followed by two column chromatographic steps, i.e. affinity chromatography using Matrex gel red A and gel filtration on Sephadex G-75.
(§7) The concentration of inhibitor required for eliciting a 50% inhibition (IC50) was determined according to the method of Kador et al (Docum. Ophthal. Proc. Series 18, p. 117 (1979)).

In the next assay the target is T2, bovine lens AR (Bos taurus, UniProt P16116).
T2 construct: Bovine eyes were obtained from a local abattoir, and the lenses were removed and frozen until needed; from tissue; host or cells: bovine lens from a local abattoir; enzyme purified by ammonium sulfate, DEAE-Sephacel, Matrex gel red A and Sephadex G-75
The experiment in a line: Inhibition of bovine lens aldose reductase (BLAR), NADPH oxidation at 340 nm. The note with it: for inhibition at 10 µM: 10^-5 M; for inhibition at 10 µM / inhibition at 1 µM / inhibition at 0.1 µM: read-out: Inhibition against enzyme activity (%); for inhibition at 1 µM: 10^-6 M; for inhibition at 0.1 µM: 10^-7 M; for IC50: Table 2, IC50 in M multiplied by 10^6. In kind it is biochemical. How it is done:
as §1, §2, §3, §4, §5, §6, §7

Where [1] appears, read: Table 2, IC50 in M multiplied by 10^6, read-out: IC50 (M) × 10^6.
Setting [2] is: read-out: IC50 (inhibition of RLAR).

By inhibition is commonly meant the share of the control response that was lost under treatment. For orientation: IC50 means the point on the concentration scale where inhibition reaches its midpoint. Take `COc1c(O)c(OC)c2c(=O)cc(-c3ccc(O)c(O)c3)oc2c1OC` [LARI-1, 3',4',6-trihydroxy-5,7,8-trimethoxyflavone]: on rat lens AR, the inhibition at 10 µM worked out at 96%, the inhibition at 1 µM worked out at 92% and the inhibition at 0.1 µM was 73%. In addition, the half-inhibitory concentration (IC50) on rat lens AR (setting [1]) stood at 3.6e-08 M. Further, on rat lens AR (setting [2]), the IC50 came out at 3.6e-08 M. On bovine lens AR, the inhibition at 10 µM is 100%, the inhibition at 1 µM was determined as 91%, the inhibition at 0.1 µM amounted to 35% and the IC50 was 180 nM.

With `COc1c(OC)c(OC)c2c(=O)cc(-c3ccc(O)cc3)oc2c1OC` [LARI-2, 4'-hydroxy-5,6,7,8-tetramethoxyflavone], at rat lens AR, the inhibition at 10 µM amounted to 91%, the inhibition at 1 µM was determined as 81% and the inhibition at 0.1 µM was 44%. Moreover, the half-maximal inhibitory concentration (IC50) at rat lens AR (setting [1]) was determined as 1.6e-07 M. Moreover, at rat lens AR (setting [2]), the IC50 came to 1.6e-07 M. For the same compound, on bovine lens AR, the inhibition at 10 µM amounted to 94%, the inhibition at 1 µM is 80%, the inhibition at 0.1 µM turned out to be 24% and the IC50 is 290 nM.

With `COc1c(O)c(OC)c2c(=O)cc(-c3ccc(O)cc3)oc2c1OC` [LARI-3, 4',6-dihydroxy-5,7,8-trimethoxyflavone], the inhibition at 10 µM was 92% on rat lens AR and 95% at bovine lens AR. The inhibition at 1 µM amounted to 74% on rat lens AR and 70% at bovine lens AR. The inhibition at 0.1 µM is 36% on rat lens AR and 18% on bovine lens AR. The IC50 at rat lens AR (setting [1]) came to 2.5e-07 M; at rat lens AR (setting [2]), 2.5e-07 M; at bovine lens AR, 420 nM.
